Source: patent US20100003191A1, “AURONE DERIVATIVE-CONTAINING COMPOSITION FOR DIAGNOSIS” (NAGASAKI UNIVERSITY, priority 2006, published 2010)

Assay: In vivo radioactivity biodistribution experiment in normal mice (Example 1, Table 13)
Parameters: species or system ddY mice
Method: ^125I-labeled compounds were diluted with 10% ethanol-containing physiological saline. […] After their blood was collected, organs were removed, and the weights and radioactivities thereof were measured.
When any of the aurone derivatives was used, sufficient radioactivity to perform imaging of intracerebral amyloid migrated to the brain from the early stage of injection (1.7-4.6% ID/g). […] It was also shown that, in any of the aurone derivatives, in vivo radioactivity behavior is discharged mainly from the liver to the bile duct and the intestinal tract.

SMILES	Biodistribution of radioactivity, Blood (2 min after injection)	Biodistribution of radioactivity, Blood (10 min after injection)	Biodistribution of radioactivity, Blood (30 min after injection)	Biodistribution of radioactivity, Blood (60 min after injection)	Biodistribution of radioactivity, Brain (2 min after injection)	Biodistribution of radioactivity, Brain (10 min after injection)	Biodistribution of radioactivity, Brain (30 min after injection)	Biodistribution of radioactivity, Brain (60 min after injection)	Biodistribution of radioactivity, Heart (2 min after injection)	Biodistribution of radioactivity, Heart (10 min after injection)	Biodistribution of radioactivity, Heart (30 min after injection)	Biodistribution of radioactivity, Heart (60 min after injection)	Biodistribution of radioactivity, Intestine (2 min after injection)	Biodistribution of radioactivity, Intestine (10 min after injection)	Biodistribution of radioactivity, Intestine (30 min after injection)	Biodistribution of radioactivity, Intestine (60 min after injection)	Biodistribution of radioactivity, Kidney (2 min after injection)	Biodistribution of radioactivity, Kidney (10 min after injection)	Biodistribution of radioactivity, Kidney (30 min after injection)	Biodistribution of radioactivity, Kidney (60 min after injection)	also measured
Nc1ccc(/C=C2\Oc3ccc([125I])cc3C2=O)cc1 [[^125I]14]	3.64 (0.78) % injected dose per gram	4.38 (0.52) % injected dose per gram	2.87 (0.82) % injected dose per gram	2.35 (1.38) % injected dose per gram	4.57 (0.27) % injected dose per gram	1.51 (0.17) % injected dose per gram	0.49 (0.06) % injected dose per gram	0.26 (0.03) % injected dose per gram	6.77 (0.74) % injected dose per gram	2.69 (0.45) % injected dose per gram	1.30 (0.41) % injected dose per gram	0.98 (0.25) % injected dose per gram	3.12 (0.85) % injected dose per gram	5.06 (1.51) % injected dose per gram	15.47 (5.48) % injected dose per gram	18.30 (7.21) % injected dose per gram	10.87 (2.95) % injected dose per gram	13.12 (4.30) % injected dose per gram	12.05 (5.44) % injected dose per gram	4.95 (1.82) % injected dose per gram	Biodistribution of radioactivity, Liver (2 min after injection): 9.17 (3.45) % injected dose per gram; Biodistribution of radioactivity, Liver (10 min after injection): 8.48 (2.84) % injected dose per gram; Biodistribution of radioactivity, Liver (30 min after injection): 7.64 (2.19) % injected dose per gram; Biodistribution of radioactivity, Liver (60 min after injection): 5.85 (1.09) % injected dose per gram; Biodistribution of radioactivity, Lung (2 min after injection): 9.06 (0.47) % injected dose per gram; Biodistribution of radioactivity, Lung (10 min after injection): 7.01 (0.28) % injected dose per gram; Biodistribution of radioactivity, Lung (30 min after injection): 5.83 (0.55) % injected dose per gram; Biodistribution of radioactivity, Lung (60 min after injection): 5.23 (1.44) % injected dose per gram; Biodistribution of radioactivity, Pancreas (2 min after injection): 4.96 (0.44) % injected dose per gram; Biodistribution of radioactivity, Pancreas (10 min after injection): 2.01 (0.49) % injected dose per gram; Biodistribution of radioactivity, Pancreas (30 min after injection): 1.22 (0.21) % injected dose per gram; Biodistribution of radioactivity, Pancreas (60 min after injection): 0.87 (0.30) % injected dose per gram; Biodistribution of radioactivity, Spleen (2 min after injection): 2.29 (0.36) % injected dose per gram; Biodistribution of radioactivity, Spleen (10 min after injection): 1.64 (0.29) % injected dose per gram; Biodistribution of radioactivity, Spleen (30 min after injection): 0.84 (0.29) % injected dose per gram; Biodistribution of radioactivity, Spleen (60 min after injection): 0.92 (0.07) % injected dose per gram; Biodistribution of radioactivity, Stomach (2 min after injection): 1.59 (0.71) % injected dose per organ; Biodistribution of radioactivity, Stomach (10 min after injection): 2.94 (0.86) % injected dose per organ; Biodistribution of radioactivity, Stomach (30 min after injection): 4.01 (2.29) % injected dose per organ; Biodistribution of radioactivity, Stomach (60 min after injection): 3.49 (2.00) % injected dose per organ
COc1ccc(/C=C2\Oc3ccc([125I])cc3C2=O)cc1 [[^125I]17]	3.16 (0.82) % injected dose per gram	1.51 (0.23) % injected dose per gram	0.95 (0.19) % injected dose per gram	0.70 (0.60) % injected dose per gram	1.69 (0.43) % injected dose per gram	0.54 (0.12) % injected dose per gram	0.11 (0.05) % injected dose per gram	0.03 (0.02) % injected dose per gram	3.84 (1.04) % injected dose per gram	1.06 (0.10) % injected dose per gram	0.37 (0.09) % injected dose per gram	0.25 (0.12) % injected dose per gram	1.59 (0.51) % injected dose per gram	4.70 (1.46) % injected dose per gram	11.67 (3.56) % injected dose per gram	9.02 (3.14) % injected dose per gram	7.26 (2.18) % injected dose per gram	7.00 (1.49) % injected dose per gram	4.93 (1.52) % injected dose per gram	2.43 (1.17) % injected dose per gram	Biodistribution of radioactivity, Liver (2 min after injection): 6.87 (2.18) % injected dose per gram; Biodistribution of radioactivity, Liver (10 min after injection): 5.16 (0.73) % injected dose per gram; Biodistribution of radioactivity, Liver (30 min after injection): 2.76 (0.40) % injected dose per gram; Biodistribution of radioactivity, Liver (60 min after injection): 1.86 (0.83) % injected dose per gram; Biodistribution of radioactivity, Lung (2 min after injection): 6.71 (1.39) % injected dose per gram; Biodistribution of radioactivity, Lung (10 min after injection): 1.76 (0.29) % injected dose per gram; Biodistribution of radioactivity, Lung (30 min after injection): 0.97 (0.20) % injected dose per gram; Biodistribution of radioactivity, Lung (60 min after injection): 0.75 (0.33) % injected dose per gram; Biodistribution of radioactivity, Pancreas (2 min after injection): 2.83 (0.75) % injected dose per gram; Biodistribution of radioactivity, Pancreas (10 min after injection): 0.77 (0.17) % injected dose per gram; Biodistribution of radioactivity, Pancreas (30 min after injection): 0.29 (0.14) % injected dose per gram; Biodistribution of radioactivity, Pancreas (60 min after injection): 0.16 (0.05) % injected dose per gram; Biodistribution of radioactivity, Spleen (2 min after injection): 1.45 (0.56) % injected dose per gram; Biodistribution of radioactivity, Spleen (10 min after injection): 0.74 (0.10) % injected dose per gram; Biodistribution of radioactivity, Spleen (30 min after injection): 0.48 (0.10) % injected dose per gram; Biodistribution of radioactivity, Spleen (60 min after injection): 0.43 (0.14) % injected dose per gram; Biodistribution of radioactivity, Stomach (2 min after injection): 0.68 (0.33) % injected dose per organ; Biodistribution of radioactivity, Stomach (10 min after injection): 1.06 (0.66) % injected dose per organ; Biodistribution of radioactivity, Stomach (30 min after injection): 0.48 (0.09) % injected dose per organ; Biodistribution of radioactivity, Stomach (60 min after injection): 0.96 (0.46) % injected dose per organ
